Measurements: patent US9757372B2, “Toll-like receptor 4 antagonists and use in autoimmune liver diseases” (TAIWANJ PHARMACEUTICALS CO., LTD., priority 2015, dated 2017)

Columns and labels:
[1] = system: Con A-induced hepatitis; assay: Concanavalin A hepatitis in mouse (murine model of AIH); format: in vivo
[2] = system: liver NK cells, NKT cells and mononuclear cells; assay: Murine model of primary biliary cirrhosis (2-OA-BSA and α-GalCer immunized C57BL/6 mice); format: in vivo, mouse; conditions: 50 mg/kg bid oral; for effect on elevated liver NK cells: week 4 through week 10 (FIG. 3); for effect on elevated liver NKT cells: week 4 through week 10 (FIG. 4); for effect on elevated liver mononuclear cells: week 4 through week 10 (not shown)
Description: C57BL/6 mice of 8-10 weeks old were immunized with 2-OA-BSA and α-GalCer at week 0, followed by booster injections at 2, 4, and 8. […] Each value represents individual animals. Some animals were lost due to lunging.

[3] = biological target: T1, TLR4 (Homo sapiens, UniProt O00206+Q9Y6Y9); conditions: Hutchinson et al., Eur J Neurosci. 28:20-29, 2008; cited from earlier work
Target sequence in this assay (O00206 24-839, species assumed): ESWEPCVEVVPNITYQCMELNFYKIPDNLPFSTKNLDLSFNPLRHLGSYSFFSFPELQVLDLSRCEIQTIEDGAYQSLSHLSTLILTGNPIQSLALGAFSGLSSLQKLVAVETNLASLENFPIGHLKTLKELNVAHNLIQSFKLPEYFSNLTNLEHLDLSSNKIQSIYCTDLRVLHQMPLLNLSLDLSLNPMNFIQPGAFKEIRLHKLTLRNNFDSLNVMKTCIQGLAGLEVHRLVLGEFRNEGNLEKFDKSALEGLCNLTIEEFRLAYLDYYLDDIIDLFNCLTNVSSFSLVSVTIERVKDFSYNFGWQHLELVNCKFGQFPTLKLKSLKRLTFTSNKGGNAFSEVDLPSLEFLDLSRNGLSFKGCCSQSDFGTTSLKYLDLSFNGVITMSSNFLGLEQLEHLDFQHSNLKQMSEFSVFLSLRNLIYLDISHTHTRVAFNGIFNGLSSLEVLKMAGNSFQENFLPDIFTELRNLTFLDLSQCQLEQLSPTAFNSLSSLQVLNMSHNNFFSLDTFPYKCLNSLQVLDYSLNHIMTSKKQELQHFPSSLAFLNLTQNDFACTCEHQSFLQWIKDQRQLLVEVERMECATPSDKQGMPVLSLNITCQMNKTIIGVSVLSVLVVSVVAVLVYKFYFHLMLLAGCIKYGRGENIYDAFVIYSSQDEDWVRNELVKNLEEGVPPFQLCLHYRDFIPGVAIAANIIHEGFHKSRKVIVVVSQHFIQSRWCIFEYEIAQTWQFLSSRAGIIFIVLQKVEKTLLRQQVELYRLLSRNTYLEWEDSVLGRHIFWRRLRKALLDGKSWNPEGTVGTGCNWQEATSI
Target sequence in this assay (Q9Y6Y9 17-160 limits assumed, species assumed): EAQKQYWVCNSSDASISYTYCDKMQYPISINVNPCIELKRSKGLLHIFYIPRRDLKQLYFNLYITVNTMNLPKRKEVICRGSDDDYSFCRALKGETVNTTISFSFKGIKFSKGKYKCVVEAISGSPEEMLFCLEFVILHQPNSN

[4] = biological target: T1, TLR4; assay: Inhibition of TLR4 activation: NF-κB-inducible SEAP reporter, antagonist assay with LPS; format: cell-based; design: expressed in transfected cells; host or cells: HEK293
Procedure: The secreted alkaline phosphatase reporter is under the control of a promoter inducible by the transcription factor NF-κB. TLR stimulation in the screening is tested by assessing NF-κB activation in the HEK293 cells expressing a given TLR. This reporter gene allows the monitoring of signaling through the TLR, based on the activation of NF-κB. In a 96-well plate (200μL total volume) containing the appropriate cells (25,000-50,000 cells/well), we add 20μL of your sample or the positive control ligands to the wells. For the antagonist assay, the samples are incubated with the cells for 30 minutes prior to adding the appropriate stimulating ligand. The media we add to the wells is designed for the detection of NF-κB induced SEAP expression. After a 16-20 hr incubation we read the OD at 650 nm on a Beckman Coulter AD 340C Absorbance Detector.
Target sequence in this assay (O00206 24-839): as the sequence (O00206 24-839, species assumed) above
Target sequence in this assay (Q9Y6Y9 17-160 limits assumed): as the sequence (Q9Y6Y9 17-160 limits assumed, species assumed) above

[5] = 20 mg/kg, 9 hours post Con A challenge, P<0.05 vs vehicle
[6] = 50 mg/kg PO, result in words (FIG. 2)

Row | Compound | reduction of IL-5 in the liver [1, 5] [%] | reduction of IL-6 in the liver [1, 5] [%] | effect on elevated liver NK cells [2] | effect on elevated liver NKT cells [2] | effect on elevated liver mononuclear cells [2] | reported TLR4 antagonist [3] | inhibition of Con A-induced elevation of ALT [1, 6] | inhibition of Con A-induced elevation of AST [1, 6] | reduction of IL-5 in the serum ([1]; 50 mg/kg, 6 hours post Con A challenge) [%] | reduction of IL-5 in the liver ([1]; 50 mg/kg, 24 hours post Con A challenge) [%] | % of Inhibition of NF-κB ([4]; HEK293 cells expressing TLR4, LPS 50 pg/mL, compound 10 μM) [%] | inhibition of LPS-induced TLR4 activation ([4]; at various concentrations)
1 | O=C1CC[C@@]2(O)[C@H]3Cc4ccc(O)c5c4[C@@]2(CCN3CC2CC2)[C@H]1O5 [Compound A, naltrexone] | 21 | 32 | suppressed | suppressed | suppressed | TLR4 antagonist | – | – | – | – | – | –
2 | C=C1CC[C@@]2(O)[C@H]3Cc4ccc(O)c5c4[C@@]2(CCN3CC2CC2)[C@H]1O5 [Compound B, nalmefene] | – | – | suppressed | suppressed | suppressed | – | significant (P<0.05) inhibition | significant (P<0.05) inhibition | 64 | 16 | 21 | weak inhibition
3 | COc1ccc2c(c1)[C@@]13CCCC[C@H]1[C@@H](C2)NCC3 [Compound C, 3-methoxymorphinan] | – | – | suppressed | suppressed | suppressed | – | – | – | – | – | – | –
4 | Oc1ccc2c(c1)[C@@]13CCCC[C@H]1[C@@H](C2)NCC3 [Compound D, 3-hydroxymorphinan] | – | – | suppressed | suppressed | suppressed | – | – | – | – | – | – | –
